Legend:
[1] = test system: mixture of fungi (C. albicans (ATCC #10231) and A. brasiliensis (ATCC #16404)); assay: CTFA Preservative Challenge Test in shampoo, mixed fungi; type: cell-based; conditions: shampoo containing the sample; initial count 7.9×10^5 cfu/mL; surviving organisms on day 7
Protocol: (§1) The CTFA Preservative Challenge Test was performed on a shampoo containing the samples below against a mixture of fungi (C. albicans (ATCC #10231) and A. brasiliensis (ATCC #16404)) having an initial count of 7.9×10^5 cfu/mL or a mixture of bacteria having an initial count of 4×10^6 cfu/mL. The shampoos inoculated with bacteria were allowed to stand for 14 days and the shampoos inoculated with fungi were allowed to stand for 7 days. The samples were evaluated for surviving organisms on day 7 for fungi-innoculated shampoos and days 7 and 14 for bacteria-innoculated shampoos.
From the table, synergism for the combinations above against mixed bacteria in shampoo was calculated by the method described in C. E. Kull et al., “Mixtures of Quaternary Ammonium Compounds and Long-chain Fatty Acids as Antifungal Agents”, Applied Microbiology, 9:538-541 (1961). The synergism value (QA/Qa+QB/Qb) was determined. […] Qa is the concentration of the first component alone (in percent by weight) required to yield 100% retardation of the bacteria or fungi. Qb is the concentration of the second component alone (in percent by weight) required to yield 100% retardation of the bacteria or fungi. When the value of (QA/Qa+QB/Qb) is less than one, the mixture is synergistic. Values for (QA/Qa+QB/Qb) of 1 and greater represent an additive effect and an antagonistic effect, respectively. […]

[2] = test system: mixture of bacteria; assay: CTFA Preservative Challenge Test in shampoo, mixed bacteria; type: cell-based; conditions: for concentration of the component alone required to yield 100% retardation (Qa, Qb): percent by weight in shampoo, plate count <10 cfu/g after 7 days; for Day 7 Count Mixed Bacteria: shampoo containing the sample, initial count 4×10^6 cfu/mL, surviving organisms on day 7
Protocol: as §1
From the table, synergism for the combinations above against mixed bacteria in shampoo was calculated by the method described in C. E. Kull et al., “Mixtures of Quaternary Ammonium Compounds and Long-chain Fatty Acids as Antifungal Agents”, Applied Microbiology, 9:538-541 (1961). The synergism value (QA/Qa+QB/Qb) was determined. […] Qa is the concentration of the first component alone (in percent by weight) required to yield 100% retardation of the bacteria or fungi. Qb is the concentration of the second component alone (in percent by weight) required to yield 100% retardation of the bacteria or fungi. […] Values for (QA/Qa+QB/Qb) of 1 and greater represent an additive effect and an antagonistic effect, respectively.

SMILES | Day 7 Count Mixed Fungi [1] | concentration of the component alone required to yield 100% retardation (Qa, Qb) [2] | Day 7 Count Mixed Bacteria [2]
OCCCO [5% 1,3-propanediol, 1,3-propanediol] | 9.2 × 10^2 cfu/mL | > 5% | 5.2 × 10^2 cfu/mL
CC(=O)c1ccc(O)cc1 [0.35% hydroxyacetophenone, 4-hydroxyacetophenone] | 1.5 × 10^2 cfu/mL | > 0.35% | 3.2 × 10^2 cfu/mL

From patent US20250268253A1, “MULTIFUNCTIONAL NATURAL PROTECTANT SYSTEMS WITH HYDROXYACETOPHENONE” (BARENTZ NORTH AMERICA, LLC, priority 2021, published 2025)
